The record followed here is patent publication US4038395A, “Compositions of and method of treating with the alpha-isomer of 2-chloro-9-[3'-(N'-2-hydroxyethylpiperazino-N)-propylidene]-thiaxanthene , carboxylic acid esters thereof and acid addition salts of these compounds” (Kefalas A/S, priority 1973, dated 1977).

Where a name gives a salt, the structure may show the parent alone. Read-outs that look alike come from different tables or passages of the source.

Data set [1] is described as follows: Acute toxicity upon intravenous injection in mice. The format is in vivo, male mice (NMRI/BOM SPF). Particulars: mouse, in vivo, iv, fasted 24 hours. As for the experimental part: (§1) Acute toxicity upon intravenous injection has been tested using groups of five male mice (NMRI/BOM SPF, 18-25 g), fasted for 24 hours. Three or four dose-levels were needed to determine LD50 values according to Miller and Tainter. Estimation of the ED50 and its error by means of logarithmicprobit graph paper.

In data set [2] the test system is methylphenidate-induced stereotyped gnawing. In words: Methylphenidate antagonism in mice (stereotyped gnawing). The format is in vivo, male mice (NMRI/BOM SPF). An excerpt:
(§2) Alpha-clopenthixol and its decanoic acid ester have been tested for neuroleptic activity with standard reliable test methods. In the testing alpha- and beta-clopenthixol (alpha-CPT and beta-CPT) have been compared with a sample of clopenthixol (CPT) containing 34% alpha-CPT as determined by I.R. spectrophotometry.
Pedersen V. and A. V. Christensen: "Antagonism of methylphenidate-induced stereotyped gnawing in mice". Acta pharmacol. et toxicol. 1972, 31, 488-496.
Male mice (NMRI/BOM SPF, 18-25 g) were given an intraperitoneal dose of test compound. Two hours later 60 mg/kg of methylphenidate hydrochloride were injected subcutaneously, and immediately thereafter the animals were placed in cages, 2 mice in each cage, for 1 hour. The cages which during the experiment were placed on corrugated paper, are described under apomorphine antagonism on page 4. In this situation control mice, when given this dose of methylphenidate, will bite the corrugated paper (gnaw-compulsion). All compounds were tested at 5 dose levels using 5 pairs of mice per dose. Percentage non-biters was plotted on log.-probit paper against dose and approximate ED50 values were read from the diagrams.

Data set [3] deals with apomorphine-induced gnaw-compulsion. Description: Apomorphine antagonism in rats (gnaw-compulsion). The format is in vivo, male rats (Wistar/Af/Han/Mo)(Han 67) SPF. Particulars: for ED50: apomorphine 10 mg/kg s.c. 2 h later.
From the text: as §2
The test method used is a slight modification of the test described by Janssen, P.A.J., Niemegeers, C.J.E. and Schellekens, K.H.L., Arzneimittel-Forschung, 1965, 15, 104-117. Male rats (Wistar/Af/Han/Mo)(Han 67) SPF, 230-270 g) were given test substance intraperitoneally (9 animals per group). Two hours later apomorphine (10 mg/kg) was injected subcutaneously and the animals were placed in individual cages for one hour. A cage consisted of a 30 cm high perspex box (12 × 25 cm), without bottom and lid, which during the experiment was placed on corrugated paper. […] Percentage non-biters was plotted on log-probit paper against dose and the ED50 was read from the diagram.

Data set [4] concerns mice. Description: Acute toxicity upon intravenous injection in mice. The class given is in vivo, male mice (NMRI/BOM SPF). Particulars: i.v.; for LD50: fasted 24 hours. The method, then: as §1
Data set [5] relates to apomorphine-induced vomiting in dogs. In words: Apomorphine antagonism in dogs (vomiting). The format is in vivo, Adult purebred Beagles. As for the experimental part:
Adult purebred Beagles of either sex from our own stock were used.
Four dogs were used for each dose level of the drug, which was injected subcutaneously at the back of the neck. At different times after the drug administration the dogs were then challenged with apomorphine according to an "up and down"-schedule using the dose-range 25-400 μg/kg i.v. geometrically spaced. […] In this way it was possible to estimate at which level of apomorphine the dogs were protected at a given time. The dogs were fed half an hour before testing to secure an easy vomiting act.

Data set [6] has as its system human beings. Description: Administration to human beings (neuroleptic action). The format is in vivo. Particulars: single intramuscular injection of about 20 - 100 mg in a light vegetable oil. An excerpt:
Alpha-clopenthixol or an ester thereof and the non-toxic acid addition salts thereof (in the following collectively called "active ingredients") may be administered to animals such as dogs, cats, horses, sheeps or the like, including human beings, both orally and parenterally, and may be used for example in the form of tablets, capsules, powders, syrups or in the form of the usual sterile solutions for injection. Results upon administration to human beings have been very gratifying.
Results upon administration to human beings of the compositions of the invention have been very gratifying. Preferably, however, the compositions are in the form of sterile solutions or suspensions for injection, and in a preferred embodiment of the invention injectable solutions may be prepared from a non-toxic injectable fat or oil, e.g. light vegetable oil, sesam oil, olive oil, arachis oil or ethyl oleate, and they may additionally contain gelling agents, e.g. aluminium stearate, to delay absorption within the body. Such oily solutions have a very prolonged activity when […] intramuscularly, and satisfactory neuroleptic action has been produced by a single intramuscular injection of about 20 - 100 mg of Lu 8- 008 dissolved in a light vegetable oil for as long as 2-4 weeks.

[7] abbreviates: dogs, 10 mg/kg s.c., depot-preparation.
Setting [8] is: dogs, both dose levels (10 and 20 mg/kg s.c.).
Where [9] appears, read: dogs, 10 mg/kg s.c., aqueous solution.

For the molecule `OCCN1CCN(CCC=C2c3ccccc3Sc3ccc(Cl)cc32)CC1` [alpha-CPT 2 HCl, alpha-isomer of 2-chloro-9-[3'-(N'-2-hydroxyethylpiperazino-N)-propylidene]-thiaxanthene], in data set [1], the LD50 came out at 105 ± 10 mg/kg. In addition, the “% Non-biters” value in data set [2] (0.31 mg/kg i.p.) worked out at 20%; in data set [2] (0.63 mg/kg i.p.), 60%; in data set [2] (1.25 mg/kg i.p.), 60%; in data set [2] (2.5 mg/kg i.p.) it was 100%; in data set [2] (5 mg/kg i.p., 5 mg/kg), 100%; in data set [3] (1.25 mg/kg i.p.), 11%. Also, the “% Non-biters” value is given as 44% in data set [3] (2.5 mg/kg i.p.); 100% in data set [3] (5 mg/kg i.p.); 100% in data set [3] (10 mg/kg i.p., 10 mg/kg). Besides, the ED50 was determined as 0.65 mg/kg in data set [2] (Mus musculus, ip, methylphenidate hydrochloride 60 mg/kg s.c. 2 h later, read-out: ED50 (approximate)) and 2.4 mg/kg in data set [3] (Rattus norvegicus, ip, read-out: ED50).
Consider `OCCN1CCN(CCC=C2c3ccccc3Sc3ccc(Cl)cc32)CC1` [beta-CPT, beta-isomer of 2-chloro-9-[3'-(N'-2-hydroxyethylpiperazino-N)-propylidene]-thiaxanthene], for which the “acute toxicity compared, in words” value in data set [4] (vs alpha-isomer and the mixture) is “somewhat less toxic than the alpha-isomer and the mixture”. Besides, the “inhibition of methylphenidate-induced compulsive gnawing, in words” value in data set [2] (20 mg/kg i.p.) is “complete inhibition”; in data set [2] (doses higher and lower than 20 mg/kg i.p.), “only partial inhibition”. In addition, the “apomorphine antagonism, in words” value in data set [3] (doses as high as 80 mg/kg i.p.) was “almost completely inactive”.
As for `CN1CCc2cccc3c2[C@H]1Cc1ccc(O)c(O)c1-3` [apomorphine], in data set [5] (Canis lupus familiaris, iv, Beagle dogs, read-out: threshold-dose of apomorphine for provoking vomiting), the minimal effective dose turned out to be 0.025 mg/kg.
Regarding `CCCCCCCCCC(=O)OCCN1CCN(CCC=C2c3ccccc3Sc3ccc(Cl)cc32)CC1` [Lu 8-008, alpha-isomer of the decanoic acid ester of 2-chloro-9-[3'(N'-2-hydroxyethylpiperazino-N)-propylidene]-thiaxanthene], the “duration of satisfactory neuroleptic action” value in data set [6] is reported as 2-4 weeks. Also, the “duration of protection against apomorphine” value in data set [5] (dogs, 10 mg/kg s.c.) worked out at 14 days; in data set [5] (dogs, 20 mg/kg s.c., depot-preparation), 3 weeks. Moreover, the “maximal level of protection (times threshold dose of apomorphine)” value in data set [5] (dogs, 10 mg/kg s.c., 5% solution) was determined as 2 times threshold; in data set [5] (dogs, 10 mg/kg s.c., 10% solution), 4 times threshold. The sedation result in data set [5] (setting [7]) is given as “at no time displayed any signs of sedation”; in data set [5] (dogs, 20 mg/kg s.c., first week), “slightly sedated”. Besides, the “time course of protection level” value in data set [5] (setting [7]) was “reached smoothly during the first week p.i., and then declined smoothly during the second week”. For the same molecule, the “prolongation of the protection against apomorphine, in words” value in data set [5] (dogs, 10 mg/kg s.c., depot-preparation, 5% or 10% solution) is listed as “considerable prolongation of the protection against apomorphine”. The “maximal level of protection (times threshold)” value in data set [5] (dogs, 20 mg/kg s.c., during the first week) came out at 8 times threshold. Besides, the “duration of protection, 10% solution compared with 5% solution” value in data set [5] (setting [8]) is recorded as “the duration was equal”. For the same molecule, the “maximal protection, 10% solution compared with 5% solution” value in data set [5] (setting [8]) is reported as “higher and/or more persisting maximal protection against apomorphine”.
For the molecule `Cl.Cl.OCCN1CCN(CCC=C2c3ccccc3Sc3ccc(Cl)cc32)CC1` [CPT 2 HCl, 2-chloro-9-[3'-(N'-2-hydroxyethylpiperazino-N)-propylidene]-thiaxanthene], the LD50 in data set [4] is 111 ± 10 mg/kg i.v. Moreover, the “% Non-biters” value came to 20% in data set [2] (0.63 mg/kg i.p.); 60% in data set [2] (1.25 mg/kg i.p.); 80% in data set [2] (2.5 mg/kg i.p.); 100% in data set [2] (5 mg/kg i.p.); 100% in data set [2] (10 mg/kg i.p.); 33% in data set [3] (2.5 mg/kg i.p.). Also, the “% Non-biters” value in data set [3] (5 mg/kg i.p.) is listed as 44%; in data set [3] (10 mg/kg i.p.) it was 67%; in data set [3] (20 mg/kg i.p.) it was 78%. Besides, in data set [2] (i.p., methylphenidate hydrochloride 60 mg/kg s.c. 2 h later), the “ED50 (approximate)” value came to 1.2 mg/kg i.p. For the same molecule, the “duration of protection against apomorphine” value in data set [5] (dogs, 10 mg/kg s.c.) is on record as 3 days. Besides, the “duration of heavy sedation” value in data set [5] (setting [9]) is recorded as “about 24 hours”. Besides, the “time p.i. at which maximal protection against apomorphine was afforded” value in data set [5] (setting [9]) was found to be 4 h. In addition, the “maximal level of protection against apomorphine (times threshold)” value in data set [5] (dogs, 10 mg/kg s.c., aqueous solution, 4 hours p.i.) was “about 16 times threshold”. In addition, the “protection against apomorphine at day 3” value in data set [5] (dogs, 10 mg/kg s.c., aqueous solution, day 3) is listed as “restricted to the threshold dose of apomorphine”. For the same molecule, in data set [5] (dogs, 10 mg/kg s.c., aqueous solution, day 4), the “protection against apomorphine at day 4” value is “returned to control level”. For the same molecule, the sedation result in data set [5] (dogs, 10 mg/kg s.c., aqueous solution, from 4 h p.i.) is “heavily sedated”. In addition, the ED50 in data set [3] (i.p.) was 5.5 mg/kg i.p.
As for `OCCN1CCN(CCC=C2c3ccccc3Sc3ccc(Cl)cc32)CC1` [alpha-CPT, alpha-isomer of 2-chloro-9-[3'-(N'-2-hydroxyethylpiperazino-N)-propylidene]-thiaxanthene], the “activity relative to CPT” value in data set [2] (i.p., vs CPT (containing 34% alpha-CPT)) was “about twice as active as CPT”. For the same molecule, the “activity relative to CPT (times more active)” value in data set [3] (i.p., vs CPT) is on record as 2- 3 times.
With `OCCN1CCN(CCC=C2c3ccccc3Sc3ccc(Cl)cc32)CC1` [beta-CPT 2 HCl], in data set [4], the LD50 was found to be 134 ± 10 mg/kg i.v. Besides, the “% Non-biters” value in data set [2] (5 mg/kg i.p., 5 mg/kg) was determined as 60%; in data set [2] (10 mg/kg i.p.) it was 20%; in data set [2] (20 mg/kg i.p.), 100%; in data set [2] (40 mg/kg i.p.), 80%; in data set [2] (80 mg/kg i.p.) it was 80%; in data set [3] (10 mg/kg i.p., 10 mg/kg) it was 11%. For the same molecule, the “% Non-biters” value in data set [3] (20 mg/kg i.p.) stood at 0%; in data set [3] (40 mg/kg i.p.), 11%; in data set [3] (80 mg/kg i.p.), 11%. Besides, the ED50 result in data set [3] (i.p.) is “none”.
